Tests used:
EAE rats = assay: Rat experimental autoimmune encephalomyelitis (EAE) model, preventive treatment; assay type: in vivo
Method: A further study was carried out to study the impact of Lp-PLA2 inhibitors on modulating M1/M2 imbalance. In this study, rats were induced to develop experimental autoimmune encephalomyelitis (EAE) by immunization with myelin basic protein (MBP) antigen and treated with a known Lp-PLA2 inhibitor: 5-((9-Methoxy-4-oxo-6,7-dihydro-4H-pyrimido[6,1-a]isoquinolin-2-yl)oxy)-2-(3-(trifluoromethyl)phenoxy)benzonitrile (See PCT application no. PCT/CN2011/001597). In this preventive treatment model, the compound was administered at day 0 (day of immunization) and continued to administer until day 22. The study lasted for 25 days. Rats were subsequently monitored for symptoms of EAE. Rats were immunized with MBP to develop EAE and symptoms were monitored daily. Plasma Lp-PLA2 activity, O×LDL, and LysoPC concentration were determined at different time points through the course of EAE.

[1] = test system: proinflammatory (M1) and anti-inflammatory (M2) markers in macrophages; assay: Ex vivo analysis of M1 and M2 markers in macrophages of EAE rats by realtime PCR; parameters: species or system rat; conditions: splenic macrophages day 13 post MBP-immunization and CNS infiltrating macrophages
Method: Ex vivo analysis of proinflammatory (M1) and anti-inflammatory (M2) markers in control and compound treated EAE rats. Splenic macrophages were harvested at day 13 post MBP-immunization and assayed for expression of a variety of markers by realtime PCR. CNS infiltrating cells were harvested and macrophages were analyzed for expression of M1 and M2 markers by realtime PCR.

## COc1ccc2c(c1)CCn1c-2cc(Oc2ccc(Oc3cccc(C(F)(F)F)c3)c(C#N)c2)nc1=O [5-((9-Methoxy-4-oxo-6,7-dihydro-4H-pyrimido[6,1-a]isoquinolin-2-yl)oxy)-2-(3-(trifluoromethyl)phenoxy)benzonitrile]
EAE rats; rat EAE plasma
  plasma Lp-PLA2 activity: decreased Lp-PLA2 activity
  plasma LysoPC levels: decreased
EAE rats; rat EAE, MBP immunization, administered day 0 until day 22
  clinical disease (EAE): reduction in clinical disease
[1]
  M1 markers expression: decrease in M1 markers
  M2 markers expression: increase in M2 markers

Source: patent publication US9273054B2, “Substituted pyrimido[1,6-a]pyrimidines as Lp-PLA2 inhibitors” (Glaxo Group Limited, priority 2011, dated 2016)
